Reference: patent publication US20120122860A1, “SOLID FORMS OF SULFONAMIDES AND AMINO ACIDS” (Plexxikon, Inc., priority 2009, published 2012)

Legend:
C-Raf = C-Raf (Homo sapiens, UniProt P04049); experiment: Kinase activity assay, C-Raf
Fms = Fms (Homo sapiens, UniProt P07333); experiment: Kinase activity assay, Fms
B-Raf V600E = B-Raf V600E (Homo sapiens, UniProt P15056, V600E); experiment: Kinase activity assay, B-Raf V600E; type: biochemical; conditions: read-out: activity toward kinase B-Raf V600E, IC50
Sequence of B-Raf V600E (P15056 whole entry V600E): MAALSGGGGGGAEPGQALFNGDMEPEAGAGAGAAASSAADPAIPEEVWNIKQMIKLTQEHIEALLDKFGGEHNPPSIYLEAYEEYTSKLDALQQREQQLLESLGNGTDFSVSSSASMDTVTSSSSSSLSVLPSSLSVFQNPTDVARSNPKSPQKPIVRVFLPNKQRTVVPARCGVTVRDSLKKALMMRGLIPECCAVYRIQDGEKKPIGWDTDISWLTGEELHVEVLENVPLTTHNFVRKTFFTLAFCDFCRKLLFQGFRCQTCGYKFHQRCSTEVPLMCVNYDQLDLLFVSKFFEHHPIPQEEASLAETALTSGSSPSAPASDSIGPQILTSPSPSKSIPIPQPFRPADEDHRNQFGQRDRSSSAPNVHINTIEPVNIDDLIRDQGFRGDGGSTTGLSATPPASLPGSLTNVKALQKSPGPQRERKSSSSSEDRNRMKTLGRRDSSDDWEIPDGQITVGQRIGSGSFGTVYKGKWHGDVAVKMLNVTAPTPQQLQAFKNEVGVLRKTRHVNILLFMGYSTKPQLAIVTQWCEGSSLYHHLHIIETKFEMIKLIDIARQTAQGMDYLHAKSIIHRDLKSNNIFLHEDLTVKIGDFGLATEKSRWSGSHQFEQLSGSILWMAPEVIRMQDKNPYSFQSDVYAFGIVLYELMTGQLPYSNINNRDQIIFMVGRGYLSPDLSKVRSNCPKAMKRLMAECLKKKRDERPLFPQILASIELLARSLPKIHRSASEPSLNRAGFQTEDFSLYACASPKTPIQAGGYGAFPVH

Kit = Kit (Homo sapiens, UniProt P10721); experiment: Kinase activity assay, Kit
Sequence of Kit (P10721 26-976): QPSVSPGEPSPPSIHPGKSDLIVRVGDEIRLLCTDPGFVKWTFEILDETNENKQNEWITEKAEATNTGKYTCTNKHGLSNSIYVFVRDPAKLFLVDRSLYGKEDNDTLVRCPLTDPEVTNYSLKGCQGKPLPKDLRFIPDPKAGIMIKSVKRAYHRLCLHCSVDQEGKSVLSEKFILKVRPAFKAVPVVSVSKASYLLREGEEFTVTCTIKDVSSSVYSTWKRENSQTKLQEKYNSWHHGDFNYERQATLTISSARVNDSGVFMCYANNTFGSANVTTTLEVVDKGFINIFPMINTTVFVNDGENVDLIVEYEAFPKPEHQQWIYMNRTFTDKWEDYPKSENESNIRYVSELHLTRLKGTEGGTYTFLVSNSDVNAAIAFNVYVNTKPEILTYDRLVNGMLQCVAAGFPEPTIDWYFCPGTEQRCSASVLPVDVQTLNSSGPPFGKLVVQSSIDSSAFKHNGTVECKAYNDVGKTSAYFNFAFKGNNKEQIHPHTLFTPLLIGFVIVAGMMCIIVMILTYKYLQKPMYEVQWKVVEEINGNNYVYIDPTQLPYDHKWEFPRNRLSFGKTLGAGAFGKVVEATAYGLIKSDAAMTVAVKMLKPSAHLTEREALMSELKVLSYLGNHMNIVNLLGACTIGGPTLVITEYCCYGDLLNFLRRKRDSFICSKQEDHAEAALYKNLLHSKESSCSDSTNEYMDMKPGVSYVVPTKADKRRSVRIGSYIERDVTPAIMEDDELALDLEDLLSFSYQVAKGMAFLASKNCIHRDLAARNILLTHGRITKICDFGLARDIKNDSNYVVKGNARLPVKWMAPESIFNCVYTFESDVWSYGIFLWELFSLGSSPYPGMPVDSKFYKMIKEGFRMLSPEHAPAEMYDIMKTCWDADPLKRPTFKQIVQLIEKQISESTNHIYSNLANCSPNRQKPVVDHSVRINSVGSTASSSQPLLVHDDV

Kdr = Kdr (Homo sapiens, UniProt P35968); experiment: Kinase activity assay, Kdr
Sequence of Kdr (P35968 20-1356): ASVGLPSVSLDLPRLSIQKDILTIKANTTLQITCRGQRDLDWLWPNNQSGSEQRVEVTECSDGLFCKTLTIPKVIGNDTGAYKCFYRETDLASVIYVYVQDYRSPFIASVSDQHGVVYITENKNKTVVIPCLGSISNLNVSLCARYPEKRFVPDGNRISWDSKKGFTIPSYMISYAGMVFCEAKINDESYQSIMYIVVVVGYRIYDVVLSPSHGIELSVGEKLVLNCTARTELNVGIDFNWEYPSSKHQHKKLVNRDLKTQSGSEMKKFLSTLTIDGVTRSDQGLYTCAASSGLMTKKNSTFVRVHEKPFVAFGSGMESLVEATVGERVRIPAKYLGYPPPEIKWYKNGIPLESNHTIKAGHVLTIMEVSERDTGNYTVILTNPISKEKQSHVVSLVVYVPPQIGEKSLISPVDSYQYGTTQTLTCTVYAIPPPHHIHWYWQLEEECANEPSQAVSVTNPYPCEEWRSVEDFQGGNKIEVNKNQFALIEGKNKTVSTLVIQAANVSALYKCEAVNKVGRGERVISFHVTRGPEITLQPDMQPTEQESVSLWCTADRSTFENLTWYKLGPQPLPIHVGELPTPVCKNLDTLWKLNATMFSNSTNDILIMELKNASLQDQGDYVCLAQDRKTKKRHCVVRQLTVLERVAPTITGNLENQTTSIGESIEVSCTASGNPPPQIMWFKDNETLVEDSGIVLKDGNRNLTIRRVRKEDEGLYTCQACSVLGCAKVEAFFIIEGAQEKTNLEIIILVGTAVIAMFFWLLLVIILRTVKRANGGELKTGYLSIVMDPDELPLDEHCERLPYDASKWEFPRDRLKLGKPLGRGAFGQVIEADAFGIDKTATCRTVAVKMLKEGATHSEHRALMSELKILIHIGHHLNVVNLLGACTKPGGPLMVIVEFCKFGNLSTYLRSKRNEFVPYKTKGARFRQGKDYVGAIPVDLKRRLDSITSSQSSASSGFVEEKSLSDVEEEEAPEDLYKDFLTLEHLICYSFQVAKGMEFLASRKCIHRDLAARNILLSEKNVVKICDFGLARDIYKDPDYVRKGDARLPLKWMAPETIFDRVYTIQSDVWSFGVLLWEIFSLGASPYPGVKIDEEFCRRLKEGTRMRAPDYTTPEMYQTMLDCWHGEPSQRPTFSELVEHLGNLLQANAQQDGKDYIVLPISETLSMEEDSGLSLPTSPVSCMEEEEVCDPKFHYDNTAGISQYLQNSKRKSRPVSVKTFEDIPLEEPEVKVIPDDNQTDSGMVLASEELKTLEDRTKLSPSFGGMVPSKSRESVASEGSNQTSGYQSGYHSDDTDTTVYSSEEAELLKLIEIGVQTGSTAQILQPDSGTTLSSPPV

B-Raf = B-Raf (Homo sapiens, UniProt P15056); experiment: Kinase activity assay, B-Raf; type: biochemical; conditions: read-out: activity toward kinase B-Raf, IC50
Sequence of B-Raf (P15056 whole entry): as the sequence (P15056 whole entry V600E) above, with E600V counted along it

Src = Src (Homo sapiens, UniProt P12931); experiment: Kinase activity assay, Src
Sequence of Src (P12931 whole entry): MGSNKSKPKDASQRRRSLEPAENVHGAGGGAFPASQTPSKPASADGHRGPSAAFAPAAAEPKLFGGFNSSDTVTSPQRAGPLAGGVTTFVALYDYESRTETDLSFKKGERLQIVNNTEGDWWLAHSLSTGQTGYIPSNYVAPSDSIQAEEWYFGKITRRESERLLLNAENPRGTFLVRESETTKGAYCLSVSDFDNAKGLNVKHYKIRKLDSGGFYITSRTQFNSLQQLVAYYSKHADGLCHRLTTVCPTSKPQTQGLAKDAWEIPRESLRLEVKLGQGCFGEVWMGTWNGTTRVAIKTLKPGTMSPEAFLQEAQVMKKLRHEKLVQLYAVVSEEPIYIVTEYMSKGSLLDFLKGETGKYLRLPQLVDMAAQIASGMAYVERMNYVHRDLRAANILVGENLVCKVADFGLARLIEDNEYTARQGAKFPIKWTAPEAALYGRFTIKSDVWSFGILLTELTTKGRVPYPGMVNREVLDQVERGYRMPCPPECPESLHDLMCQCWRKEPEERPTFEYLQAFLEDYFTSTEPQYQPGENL

Sequence of Fms (P07333 20-972): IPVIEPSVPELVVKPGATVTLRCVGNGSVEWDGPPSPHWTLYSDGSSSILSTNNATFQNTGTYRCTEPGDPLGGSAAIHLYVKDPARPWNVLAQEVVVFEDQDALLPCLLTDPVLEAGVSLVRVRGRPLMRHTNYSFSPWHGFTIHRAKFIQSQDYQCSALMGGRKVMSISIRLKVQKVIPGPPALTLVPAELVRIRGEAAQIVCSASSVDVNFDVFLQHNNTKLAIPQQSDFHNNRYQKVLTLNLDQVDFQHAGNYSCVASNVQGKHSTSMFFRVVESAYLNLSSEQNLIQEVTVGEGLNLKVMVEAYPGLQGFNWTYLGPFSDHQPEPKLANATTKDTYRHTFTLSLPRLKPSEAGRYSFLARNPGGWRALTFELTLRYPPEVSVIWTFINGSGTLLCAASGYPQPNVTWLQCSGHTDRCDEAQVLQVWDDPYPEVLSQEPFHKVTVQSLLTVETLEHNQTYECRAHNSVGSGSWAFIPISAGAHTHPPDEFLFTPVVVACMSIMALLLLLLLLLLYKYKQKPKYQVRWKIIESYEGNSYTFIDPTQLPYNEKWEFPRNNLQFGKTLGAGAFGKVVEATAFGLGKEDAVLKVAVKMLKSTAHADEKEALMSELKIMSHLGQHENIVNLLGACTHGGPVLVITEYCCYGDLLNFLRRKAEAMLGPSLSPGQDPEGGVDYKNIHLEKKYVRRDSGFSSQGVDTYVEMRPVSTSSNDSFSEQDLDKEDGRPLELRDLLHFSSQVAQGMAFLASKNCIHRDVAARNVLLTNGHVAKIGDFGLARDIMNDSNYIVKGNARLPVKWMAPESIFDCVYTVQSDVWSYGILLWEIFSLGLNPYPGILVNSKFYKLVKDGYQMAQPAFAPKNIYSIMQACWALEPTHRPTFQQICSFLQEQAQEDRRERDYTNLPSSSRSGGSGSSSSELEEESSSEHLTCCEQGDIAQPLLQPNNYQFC

Row | IC50 (C-Raf) | IC50 (Fms) | IC50 (B-Raf V600E) | IC50 (Kit) | IC50 (Kdr) | IC50 (B-Raf) | IC50 (Src) | Structure (SMILES)
1 | ≤ 10 µM | ≤ 10 µM | ≤ 10 µM | ≤ 10 µM | ≤ 10 µM | – | – | Cc1oncc1S(=O)(=O)Nc1cccc(C(=O)c2c[nH]c3ncc(C#N)cc23)c1F [P-2088, 5-Methyl-isoxazole-4-sulfonic acid [3-(5-cyano-1H-pyrrolo[2,3-b]pyridine-3-carbonyl)-2-fluoro-phenyl]-amide]
2 | – | ≤ 10 µM | ≤ 10 µM | ≤ 10 µM | ≤ 10 µM | ≤ 10 µM | ≤ 10 µM | Cn1cc(-c2cnc3[nH]cc(C(=O)c4cc(NS(=O)(=O)c5ccc(C(F)(F)F)cc5)ccc4F)c3c2)cn1 [P-2104, N-{4-Fluoro-3-[5-(1-methyl-1H-pyrazol-4-yl)-1H-pyrrolo[2,3-b]pyridine-3-carbonyl]-phenyl}-4-trifluoromethyl-benzenesulfonamide]
3 | – | ≤ 10 µM | – | ≤ 10 µM | ≤ 10 µM | ≤ 10 µM | – | O=C(c1cc(NS(=O)(=O)c2ccc(Cl)cc2)ccc1F)c1c[nH]c2ncc(Cl)cc12 [P-2106, 4-Chloro-N-[3-(5-chloro-1H-pyrrolo[2,3-b]pyridine-3-carbonyl)-4-fluoro-phenyl]-benzenesulfonamide]
4 | – | ≤ 10 µM | ≤ 10 µM | ≤ 10 µM | ≤ 10 µM | ≤ 10 µM | – | O=C(c1cc(NS(=O)(=O)c2cccc(C(F)(F)F)c2)ccc1F)c1c[nH]c2ncc(Cl)cc12 [P-2108, N-[3-(5-Chloro-1H-pyrrolo[2,3-b]pyridine-3-carbonyl)-4-fluoro-phenyl]-3-trifluoromethyl-benzenesulfonamide]
5 | – | ≤ 10 µM | ≤ 10 µM | ≤ 10 µM | ≤ 10 µM | ≤ 10 µM | – | O=C(c1cc(NS(=O)(=O)c2cccc(OC(F)(F)F)c2)ccc1F)c1c[nH]c2ncc(Cl)cc12 [P-2110, N-[3-(5-Chloro-1H-pyrrolo[2,3-b]pyridine-3-carbonyl)-4-fluoro-phenyl]-3-trifluoromethoxy-benzenesulfonamide]
6 | – | ≤ 10 µM | – | ≤ 10 µM | – | ≤ 10 µM | – | O=C(c1cc(NS(=O)(=O)c2ccc(C(F)(F)F)cc2)ccc1F)c1c[nH]c2ncc(Cl)cc12 [P-2112, N-[3-(5-Chloro-1H-pyrrolo[2,3-b]pyridine-3-carbonyl)-4-fluoro-phenyl]-4-trifluoromethyl-benzenesulfonamide]
7 | – | ≤ 10 µM | – | ≤ 10 µM | – | ≤ 10 µM | – | O=C(c1cccc(NS(=O)(=O)c2ccc(OC(F)(F)F)cc2)c1)c1c[nH]c2ncc(Cl)cc12 [P-2123, N-[3-(5-Chloro-1H-pyrrolo[2,3-b]pyridine-3-carbonyl)-phenyl]-4-trifluoromethoxy-benzenesulfonamide]
8 | – | ≤ 10 µM | ≤ 10 µM | ≤ 10 µM | ≤ 10 µM | ≤ 10 µM | – | O=C(c1cccc(NS(=O)(=O)c2cccc(F)c2)c1)c1c[nH]c2ncc(Cl)cc12 [P-2127, N-[3-(5-Chloro-1H-pyrrolo[2,3-b]pyridine-3-carbonyl)-phenyl]-3-fluoro-benzenesulfonamide]
9 | – | ≤ 10 µM | – | ≤ 10 µM | ≤ 10 µM | ≤ 10 µM | – | O=C(c1cccc(NS(=O)(=O)c2ccc(Cl)cc2)c1)c1c[nH]c2ncc(Cl)cc12 [P-2128, 4-Chloro-N-[3-(5-chloro-1H-pyrrolo[2,3-b]pyridine-3-carbonyl)-phenyl]-benzenesulfonamide]
10 | – | ≤ 10 µM | ≤ 10 µM | ≤ 10 µM | ≤ 10 µM | ≤ 10 µM | – | CCCS(=O)(=O)Nc1ccc(F)c(C(=O)c2c[nH]c3ncc(-c4ncc(C)n4C)cc23)c1F [P-2152, Propane-1-sulfonic acid {3-[5-(1,5-dimethyl-1H-imidazol-2-yl)-1H-pyrrolo[2,3-b]pyridine-3-carbonyl]-2,4-difluoro-phenyl}-amide]
11 | – | ≤ 10 µM | ≤ 10 µM | ≤ 10 µM | ≤ 10 µM | ≤ 10 µM | ≤ 10 µM | CCCS(=O)(=O)Nc1ccc(F)c(C(=O)c2c[nH]c3ncc(-c4nccn4C)cc23)c1F [P-2153, Propane-1-sulfonic acid {2,4-difluoro-3-[5-(1-methyl-1H-imidazol-2-yl)-1H-pyrrolo[2,3-b]pyridine-3-carbonyl]-phenyl}-amide]
12 | – | ≤ 10 µM | ≤ 10 µM | ≤ 10 µM | ≤ 10 µM | – | ≤ 10 µM | CCCS(=O)(=O)Nc1ccc(F)c(C(=O)c2c[nH]c3ncc(-c4cccnc4F)cc23)c1F [P-2164, Propane-1-sulfonic acid {2,4-difluoro-3-[5-(2-fluoro-pyridin-3-yl)-1H-pyrrolo[2,3-b]pyridine-3-carbonyl]-phenyl}-amide]
13 | – | ≤ 10 µM | ≤ 10 µM | ≤ 10 µM | ≤ 10 µM | – | ≤ 10 µM | CCCS(=O)(=O)Nc1ccc(F)c(C(=O)c2c[nH]c3ncc(-c4cccc(NS(C)(=O)=O)c4)cc23)c1F [P-2169, Propane-1-sulfonic acid {2,4-difluoro-3-[5-(3-methanesulfonylamino-phenyl)-1H-pyrrolo[2,3-b]pyridine-3-carbonyl]-phenyl}-amide]
14 | – | ≤ 10 µM | ≤ 10 µM | ≤ 10 µM | ≤ 10 µM | ≤ 10 µM | ≤ 10 µM | CCCS(=O)(=O)Nc1ccc(F)c(C(=O)c2c[nH]c3ncc(-c4ccc(C)nc4F)cc23)c1F [P-2172, Propane-1-sulfonic acid {2,4-difluoro-3-[5-(2-fluoro-6-methyl-pyridin-3-yl)-1H-pyrrolo[2,3-b]pyridine-3-carbonyl]-phenyl}-amide]
15 | – | ≤ 10 µM | ≤ 10 µM | ≤ 10 µM | ≤ 10 µM | ≤ 10 µM | ≤ 10 µM | CCCS(=O)(=O)Nc1ccc(F)c(C(=O)c2c[nH]c3ncc(-c4ccnn4C)cc23)c1F [P-2175, Propane-1-sulfonic acid {2,4-difluoro-3-[5-(2-methyl-2H-pyrazol-3-yl)-1H-pyrrolo[2,3-b]pyridine-3-carbonyl]-phenyl}-amide]
16 | – | ≤ 10 µM | ≤ 10 µM | ≤ 10 µM | ≤ 10 µM | ≤ 10 µM | ≤ 10 µM | CCCS(=O)(=O)Nc1ccc(F)c(C(=O)c2c[nH]c3ncc(-c4ccc(C(=O)NC)nc4)cc23)c1F [P-2180, 5-{3-[2,6-Difluoro-3-(propane-1-sulfonylamino)-benzoyl]-1H-pyrrolo[2,3-b]pyridin-5-yl}-pyridine-2-carboxylic acid methylamide]
17 | – | ≤ 10 µM | ≤ 10 µM | ≤ 10 µM | ≤ 10 µM | ≤ 10 µM | ≤ 10 µM | CCCS(=O)(=O)Nc1ccc(F)c(C(=O)c2c[nH]c3ncc(-c4ccc(C(=O)NC5CC5)nc4)cc23)c1F [P-2181, 5-{3-[2,6-Difluoro-3-(propane-1-sulfonylamino)-benzoyl]-1H-pyrrolo[2,3-b]pyridin-5-yl}-pyridine-2-carboxylic acid cyclopropylamide]
18 | – | ≤ 10 µM | ≤ 10 µM | ≤ 10 µM | ≤ 10 µM | ≤ 10 µM | – | CCCS(=O)(=O)Nc1ccc(F)c(C(=O)c2c[nH]c3ncc(-c4ccc(S(C)(=O)=O)cc4)cc23)c1F [P-2183, Propane-1-sulfonic acid {2,4-difluoro-3-[5-(4-methanesulfonyl-phenyl)-1H-pyrrolo[2,3-b]pyridine-3-carbonyl]-phenyl}-amide]
19 | – | ≤ 10 µM | ≤ 10 µM | ≤ 10 µM | ≤ 10 µM | ≤ 10 µM | ≤ 10 µM | CCCS(=O)(=O)Nc1ccc(F)c(C(=O)c2c[nH]c3ncc(-c4ccc(SC)nc4)cc23)c1F [P-2187]
20 | – | ≤ 10 µM | ≤ 10 µM | ≤ 10 µM | ≤ 10 µM | ≤ 10 µM | ≤ 10 µM | CCCS(=O)(=O)Nc1ccc(F)c(C(=O)c2c[nH]c3ncc(-c4ccnc(F)c4)cc23)c1F [P-2192, Propane-1-sulfonic acid {2,4-difluoro-3-[5-(2-fluoro-pyridin-4-yl)-1H-pyrrolo[2,3-b]pyridine-3-carbonyl]-phenyl}-amide]
21 | – | ≤ 10 µM | ≤ 10 µM | ≤ 10 µM | ≤ 10 µM | ≤ 10 µM | ≤ 10 µM | CCCS(=O)(=O)Nc1ccc(F)c(C(=O)c2c[nH]c3ncc(O)cc23)c1F [P-2204, Propane-1-sulfonic acid [2,4-difluoro-3-(5-hydroxy-1H-pyrrolo[2,3-b]pyridine-3-carbonyl)-phenyl]-amide]
22 | – | ≤ 10 µM | ≤ 10 µM | ≤ 10 µM | ≤ 10 µM | ≤ 10 µM | ≤ 10 µM | CCS(=O)(=O)Nc1ccc(F)c(C(=O)c2c[nH]c3ncc(Br)cc23)c1F [P-2268, Ethanesulfonic acid [3-(5-bromo-1H-pyrrolo[2,3-b]pyridine-3-carbonyl)-2,4-difluoro-phenyl]-amide]
23 | – | ≤ 10 µM | ≤ 10 µM | ≤ 10 µM | ≤ 10 µM | – | ≤ 10 µM | CC(C)CS(=O)(=O)Nc1ccc(F)c(C(=O)c2c[nH]c3ncc(Br)cc23)c1F [P-2296, 2-Methyl-propane-1-sulfonic acid [3-(5-bromo-1H-pyrrolo[2,3-b]pyridine-3-carbonyl)-2,4-difluoro-phenyl]-amide]
24 | – | ≤ 10 µM | ≤ 10 µM | ≤ 10 µM | ≤ 10 µM | ≤ 10 µM | – | CCCS(=O)(=O)Nc1cccc(C(=O)c2c[nH]c3ncc(C(=O)OCC)cc23)c1F [P-2406, 3-[2-Fluoro-3-(propane-1-sulfonylamino)-benzoyl]-1H-pyrrolo[2,3-b]pyridine-5-carboxylic acid ethyl ester]
